Experimental data from US12077503B2, “Substituted cyclic amides and their use as herbicides” (FMC CORPORATION, priority 2015, dated 2024).

How the values were obtained:
Format in all cases: in vivo
[1] = tested on: barnyardgrass (Echinochloa crus-galli); assay: Test G Post-Emergence Protocol; details: Echinochloa crus-galli, post-emergence, 312 h; for pest or weed control at 15.625 g/ha: 15.625 g ai/ha, evaluated after 13 days (100=total damage to plant; 0=no damage to plant), read-out: Barnyardgrass damage rating; for pest or weed control at 62.5 g/ha: 62.5 g ai/ha, read-out: Barnyardgrass damage rating (100=total damage to plant; 0=no damage to plant); for pest or weed control at 62.5 g/ha / pest or weed control at 250 g/ha: evaluated after 13 days; for pest or weed control at 250 g/ha: 250 g ai/ha, read-out: damage to plant, Barnyardgrass (100=total damage to plant; 0=no damage to plant)
Method in brief: (§1)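 Damage was rated 13 days after treatment from 0 (none) to 100 (plant killed). Compound was applied as a spray at 15.625, 62.5 or 250 g/ha in 50:50 acetone/water containing 0.5% Tween 20, onto 8-day-old potted plants kept in a glasshouse (24/16 °C, 14 h light, 65% humidity).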

[2] = tested on: velvetleaf (Abutilon theophrasti); assay: Test G Post-Emergence Protocol; details: Abutilon theophrasti, post-emergence, 312 h; for pest or weed control at 15.625 g/ha: 15.625 g ai/ha, evaluated after 13 days (100=total damage to plant; 0=no damage to plant), read-out: Velvetleaf damage rating; for pest or weed control at 62.5 g/ha: 62.5 g ai/ha, read-out: Velvetleaf damage rating (100=total damage to plant; 0=no damage to plant); for pest or weed control at 62.5 g/ha / pest or weed control at 250 g/ha: evaluated after 13 days; for pest or weed control at 250 g/ha: 250 g ai/ha, read-out: damage to plant, Velvetleaf (100=total damage to plant; 0=no damage to plant)
Method in brief: as §1

[3] = tested on: redroot pigweed (Amaranthus retroflexus); assay: Test G Post-Emergence Protocol; details: Amaranthus retroflexus, post-emergence, 312 h; for pest or weed control at 15.625 g/ha: 15.625 g ai/ha, evaluated after 13 days (100=total damage to plant; 0=no damage to plant), read-out: Pigweed, Redroot damage rating; for pest or weed control at 62.5 g/ha: 62.5 g ai/ha, read-out: Pigweed, Redroot damage rating (100=total damage to plant; 0=no damage to plant); for pest or weed control at 62.5 g/ha / pest or weed control at 250 g/ha: evaluated after 13 days; for pest or weed control at 250 g/ha: 250 g ai/ha, read-out: damage to plant, Pigweed, Redroot (100=total damage to plant; 0=no damage to plant)
Method in brief: as §1

[4] = tested on: ivy-leaved morning glory (Ipomoea hederacea); assay: Test G Post-Emergence Protocol; details: Ipomoea, post-emergence, 312 h; for pest or weed control at 15.625 g/ha: 15.625 g ai/ha, evaluated after 13 days (100=total damage to plant; 0=no damage to plant), read-out: Morningglory, Ivy-leaved damage rating; for pest or weed control at 62.5 g/ha: 62.5 g ai/ha, read-out: Morningglory, Ivy-leaved damage rating (100=total damage to plant; 0=no damage to plant); for pest or weed control at 62.5 g/ha / pest or weed control at 250 g/ha: evaluated after 13 days; for pest or weed control at 250 g/ha: 250 g ai/ha, read-out: damage to plant, Morningglory, Ivy-leaved (100=total damage to plant; 0=no damage to plant)
Method in brief: as §1

[5] = tested on: giant foxtail (Setaria faberi); assay: Test G Post-Emergence Protocol; details: Setaria faberi, post-emergence, 312 h; for pest or weed control at 15.625 g/ha: 15.625 g ai/ha, evaluated after 13 days (100=total damage to plant; 0=no damage to plant), read-out: Foxtail, Giant damage rating; for pest or weed control at 62.5 g/ha: 62.5 g ai/ha, read-out: Foxtail, Giant damage rating (100=total damage to plant; 0=no damage to plant); for pest or weed control at 62.5 g/ha / pest or weed control at 250 g/ha: evaluated after 13 days; for pest or weed control at 250 g/ha: 250 g ai/ha, read-out: damage to plant, Foxtail, Giant (100=total damage to plant; 0=no damage to plant)
Method in brief: as §1

corn (Zea mays) [6] = assay: Test G Post-Emergence Protocol; details: Zea mays, post-emergence, 312 h; for plant injury at 15.625 g/ha: 15.625 g ai/ha, evaluated after 13 days (100=total damage to plant; 0=no damage to plant), read-out: Corn damage rating; for plant injury at 62.5 g/ha: 62.5 g ai/ha, read-out: Corn damage rating (100=total damage to plant; 0=no damage to plant); for plant injury at 62.5 g/ha / plant injury at 250 g/ha: evaluated after 13 days; for plant injury at 250 g/ha: 250 g ai/ha, read-out: damage to plant, Corn (100=total damage to plant; 0=no damage to plant)
Method in brief: as §1

[7] = tested on: barnyardgrass (Echinochloa crus-galli); assay: Test G Pre-Emergence Protocol; details: Echinochloa crus-galli, pre-emergence, 312 h, evaluated after 13 days; for pest or weed control at 15.625 g/ha: 15.625 g ai/ha, read-out: Barnyard grass damage rating (100=total damage to plant; 0=no damage to plant); for pest or weed control at 62.5 g/ha: 62.5 g ai/ha, 100=total damage to plant, 0=no damage to plant, read-out: plant damage rating, Barnyardgrass; for pest or weed control at 250 g/ha: 250 g ai/ha, read-out: Barnyardgrass damage rating (100=total damage to plant; 0=no damage to plant)
Method in brief: (§2)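 Visual injury (0–100) at day 13 after a single pre-emergence spray. Rates: 15.625, 62.5, 250 g/ha in acetone–water 50:50 with 0.5% Tween 20. Growth conditions: 24/16° C, 14 h light, 65% humidity.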

[8] = tested on: velvetleaf (Abutilon theophrasti); assay: Test G Pre-Emergence Protocol; details: Abutilon theophrasti, pre-emergence, 312 h, evaluated after 13 days; for pest or weed control at 15.625 g/ha: 15.625 g ai/ha; for pest or weed control at 15.625 g/ha / pest or weed control at 250 g/ha: read-out: Velvetleaf damage rating (100=total damage to plant; 0=no damage to plant); for pest or weed control at 62.5 g/ha: 62.5 g ai/ha, 100=total damage to plant, 0=no damage to plant, read-out: plant damage rating, Velvetleaf; for pest or weed control at 250 g/ha: 250 g ai/ha
Method in brief: as §2

[9] = tested on: redroot pigweed (Amaranthus retroflexus); assay: Test G Pre-Emergence Protocol; details: Amaranthus retroflexus, pre-emergence, 312 h, evaluated after 13 days; for pest or weed control at 15.625 g/ha: 15.625 g ai/ha; for pest or weed control at 15.625 g/ha / pest or weed control at 250 g/ha: read-out: Pigweed, Redroot damage rating (100=total damage to plant; 0=no damage to plant); for pest or weed control at 62.5 g/ha: 62.5 g ai/ha, 100=total damage to plant, 0=no damage to plant, read-out: plant damage rating, Pigweed, Redroot; for pest or weed control at 250 g/ha: 250 g ai/ha
Method in brief: as §2

[10] = tested on: ivy-leaved morning glory (Ipomoea hederacea); assay: Test G Pre-Emergence Protocol; details: Ipomoea, pre-emergence, 312 h, evaluated after 13 days; for pest or weed control at 15.625 g/ha: 15.625 g ai/ha, read-out: Morning-glory, Ivy-leaved damage rating (100=total damage to plant; 0=no damage to plant); for pest or weed control at 62.5 g/ha: 62.5 g ai/ha, 100=total damage to plant, 0=no damage to plant, read-out: plant damage rating, Morningglory, Ivy-leaved; for pest or weed control at 250 g/ha: 250 g ai/ha, read-out: Morningglory, Ivy-leaved damage rating (100=total damage to plant; 0=no damage to plant)
Method in brief: as §2

[11] = tested on: giant foxtail (Setaria faberi); assay: Test G Pre-Emergence Protocol; details: Setaria faberi, pre-emergence, 312 h, evaluated after 13 days; for pest or weed control at 15.625 g/ha: 15.625 g ai/ha; for pest or weed control at 15.625 g/ha / pest or weed control at 250 g/ha: read-out: Foxtail, Giant damage rating (100=total damage to plant; 0=no damage to plant); for pest or weed control at 62.5 g/ha: 62.5 g ai/ha, 100=total damage to plant, 0=no damage to plant, read-out: plant damage rating, Foxtail, Giant; for pest or weed control at 250 g/ha: 250 g ai/ha
Method in brief: as §2

corn (Zea mays) [12] = assay: Test G Pre-Emergence Protocol; details: Zea mays, pre-emergence, 312 h, evaluated after 13 days; for plant injury at 15.625 g/ha: 15.625 g ai/ha; for plant injury at 15.625 g/ha / plant injury at 250 g/ha: read-out: Corn damage rating (100=total damage to plant; 0=no damage to plant); for plant injury at 62.5 g/ha: 62.5 g ai/ha, 100=total damage to plant, 0=no damage to plant, read-out: plant damage rating, Corn; for plant injury at 250 g/ha: 250 g ai/ha
Method in brief: as §2

## CSc1nc(N)cc(NC(=O)[C@@H]2C(=O)N(C)C[C@H]2c2ccc(C(F)(F)F)cc2)n1 (racemic) [Compound 1644]
[1]
  pest or weed control at 15.625 g/ha: 0%
  pest or weed control at 62.5 g/ha: 0%
  pest or weed control at 250 g/ha: 20%
[2]
  pest or weed control at 15.625 g/ha: 0%
  pest or weed control at 62.5 g/ha: 0%
  pest or weed control at 250 g/ha: 0%
[3]
  pest or weed control at 15.625 g/ha: 0%
  pest or weed control at 62.5 g/ha: 0%
  pest or weed control at 250 g/ha: 0%
[4]
  pest or weed control at 15.625 g/ha: 0%
  pest or weed control at 62.5 g/ha: 10%
  pest or weed control at 250 g/ha: 40%
[5]
  pest or weed control at 15.625 g/ha: 0%
  pest or weed control at 62.5 g/ha: 20%
  pest or weed control at 250 g/ha: 30%
Corn (Zea mays) [6]
  plant injury at 15.625 g/ha: 0%
  plant injury at 62.5 g/ha: 0%
  plant injury at 250 g/ha: 0%
[7]
  pest or weed control at 15.625 g/ha: 0%
  pest or weed control at 62.5 g/ha: 0%
  pest or weed control at 250 g/ha: 0%
[8]
  pest or weed control at 15.625 g/ha: 0%
  pest or weed control at 62.5 g/ha: 0%
  pest or weed control at 250 g/ha: 0%
[9]
  pest or weed control at 15.625 g/ha: 0%
  pest or weed control at 62.5 g/ha: 0%
  pest or weed control at 250 g/ha: 0%
[10]
  pest or weed control at 15.625 g/ha: 0%
  pest or weed control at 62.5 g/ha: 0%
  pest or weed control at 250 g/ha: 0%
[11]
  pest or weed control at 15.625 g/ha: 0%
  pest or weed control at 62.5 g/ha: 0%
  pest or weed control at 250 g/ha: 0%
Corn (Zea mays) [12]
  plant injury at 15.625 g/ha: 0%
  plant injury at 62.5 g/ha: 0%
  plant injury at 250 g/ha: 0%

## Cc1c(C#N)cccc1NC(=O)[C@H]1C(=O)N(C)C[C@@H]1c1ccc(C(F)(F)F)cc1 (racemic) [Compound 1444]
[1]
  pest or weed control at 15.625 g/ha: 0%
  pest or weed control at 62.5 g/ha: 10%
  pest or weed control at 250 g/ha: 20%
[2]
  pest or weed control at 15.625 g/ha: 0%
  pest or weed control at 62.5 g/ha: 0%
  pest or weed control at 250 g/ha: 0%
[3]
  pest or weed control at 15.625 g/ha: 10%
  pest or weed control at 62.5 g/ha: 10%
  pest or weed control at 250 g/ha: 20%
[4]
  pest or weed control at 15.625 g/ha: 0%
  pest or weed control at 62.5 g/ha: 10%
  pest or weed control at 250 g/ha: 10%
[5]
  pest or weed control at 15.625 g/ha: 0%
  pest or weed control at 62.5 g/ha: 60%
  pest or weed control at 250 g/ha: 60%
Corn (Zea mays) [6]
  plant injury at 15.625 g/ha: 10%
  plant injury at 62.5 g/ha: 10%
  plant injury at 250 g/ha: 10%
[7]
  pest or weed control at 15.625 g/ha: 10%
  pest or weed control at 62.5 g/ha: 30%
  pest or weed control at 250 g/ha: 60%
[8]
  pest or weed control at 15.625 g/ha: 0%
  pest or weed control at 62.5 g/ha: 20%
  pest or weed control at 250 g/ha: 20%
[9]
  pest or weed control at 15.625 g/ha: 0%
  pest or weed control at 62.5 g/ha: 40%
  pest or weed control at 250 g/ha: 50%
[10]
  pest or weed control at 15.625 g/ha: 10%
  pest or weed control at 62.5 g/ha: 0%
  pest or weed control at 250 g/ha: 40%
[11]
  pest or weed control at 15.625 g/ha: 50%
  pest or weed control at 62.5 g/ha: 80%
  pest or weed control at 250 g/ha: 80%
Corn (Zea mays) [12]
  plant injury at 15.625 g/ha: 0%
  plant injury at 62.5 g/ha: 0%
  plant injury at 250 g/ha: 50%
